# Source: patent publication US10975399B2, “Use of nitric oxide or nitric oxide donor for inducing the production of triacylglycerols in microalgae” (Commissariat A L'energie Atomique Et Aux Energies …, priority 2016, dated 2021)
# Legend:
# [1] = test system: Phaeodactylum tricornutum; assay: Growth of P. tricornutum incubated with the NO donor (cell counting); assay type: cell-based; conditions: 1 mM, 2-day incubation, 500 μL volume, 10×ESAW medium, FIG. 1
# Method: FIGS. 1 to 4: Effect of increasing concentrations of SNAP on the production of TAG in Phaedocatylum tricornutum. The medium used was 10×ESAW; incubation was performed in 500 μl, inoculated at 1E+06 cells/ml, with immediate addition of chemicals. Measurements were performed after 2 days of incubation. Data of FIGS. 1 and 2 and 3 are the results of 3 biological replicates, FIG. 4 was a time course without replicates. NAP was used as a non-active analogue of SNAP. FIG. 1: Effect of increasing concentrations of SNAP on growth. Growth is measured in cell/mL. Phaeodactylum tricornutum (Ptl) Bohlin Strain 8.6 CCMP2561 (Culture Collection of Marine Phytoplankton, now known as NCMA: National Center for Marine Algae and Microbiota) was used in all experiments. Ptl was grown at 20° C. in 250 mL flask in artificial seawater (ESAW) medium (composition of the medium see table 1) using ten times enriched nitrogen and phosphate sources (5.49·10^−3 M NaNO3 and 2.24·10^−4 NaH3PO4) called “10×ESAW”, or nitrogen-depleted medium. Cells were grown on a 12:12 light (30 μE m^−2sec^−1)/dark cycle. Cells were sub-cultured twice a week by inoculating 1·10^6 cells/ml with fresh media. Growth was evaluated by cell counting using a Malassez counting chamber, or by the absorption at 750 nm using a plate reader. S-Nitroso-N-acetylpenicillamine (SNAP) is a compound that spontaneously releases NO, when dissolved.
# [2] = test system: Phaeodactylum tricornutum; assay: TAG accumulation by Nile Red staining; assay type: cell-based; conditions: 1 mM, 2-day incubation, 500 μL volume, 10×ESAW medium
# Method: FIGS. 1 to 4: Effect of increasing concentrations of SNAP on the production of TAG in Phaedocatylum tricornutum. The medium used was 10×ESAW; incubation was performed in 500 μl, inoculated at 1E+06 cells/ml, with immediate addition of chemicals. Measurements were performed after 2 days of incubation. Data of FIGS. 1 and 2 and 3 are the results of 3 biological replicates, FIG. 4 was a time course without replicates. NAP was used as a non-active analogue of SNAP. FIG. 2: Effect of increasing concentrations of SNAP on TAG level per cell. TAG level per cell is given in relative fluorescence units/10^6 cells. FIG. 3: Effect of increasing concentrations of SNAP on TAG productivity. TAG productivity is given in relative fluorescence unit (Rfu) corresponding to the fluorescence of Nile Red per mL and per day. […] Growth was evaluated by cell counting using a Malassez counting chamber, or by the absorption at 750 nm using a plate reader. […] Accumulation of TAG droplets was monitored by Nile Red (Sigma Aldrich) fluorescent staining (Excitation wavelength at 485 nm; emission at 525 nm) following the principles previously described (Abida et al., 2015). In brief, cells were diluted and adjusted to a cell density that was linearly correlated with Nile Red fluorescence. […] Alternatively, Nile red fluorescence values were normalized to the cell concentration.
smiles,measurement,setting,value
"CC(=O)N[C@H](C(=O)O)C(C)(C)SN=O (racemic) [SNAP, S-Nitroso-N-acetylpenicillamine]",cell growth,[1],reduction of cell growth
same,increase of productivity (level of TAG per volume of culture and per day),"[2]; Nile Red Rfu per mL and per day, FIG. 3",> 2 fold
same,increase of TAG per cell,"[2]; Nile Red fluorescence per 10^6 cells, FIG. 2",2.2 fold
